Consider 1 compound from patent US11052154B2, “Ras protein degradation inducing molecule and pharmaceutical composition” (Tokyo University of Science Foundation, priority 2016, dated 2021).

For assay [1], the target named is T1, wild-type K-Ras protein (Homo sapiens, UniProt P01116).
T1 construct: expressed in transfected cells; host or cells: HeLa
Put plainly: Degradation (knockdown) of wild-type K-Ras protein forcibly expressed in HeLa cells, FACS analysis. The class given is cell-based. To be noted: FIG. 1. The protocol:
In Example 2, degradation (knockdown) of a wild-type K-Ras protein forcibly expressed in HeLa cells (human cervical cancer cells) through TUS-007 was evaluated by FACS analysis. […] The full-length cDNA clone (Accession No. AK292510) of a human K-ras gene was purchased from Independent Administrative Institution, the National Institute of Technology and Evaluation. PCR amplification was performed using KOD-Plus-Neo (TOYOBO CO., LTD) as a PCR enzyme. The plasmid was introduced into HeLa cells to transiently overexpress a wild-type K-Ras protein (specifically, a fusion protein of a wild-type K-Ras protein and GFP via a HA tag) or a DsRed protein for comparison in the […] (Wako Pure Chemical Industries, Ltd.) as a transfection reagent was used to introduce the plasmid into HeLa cells by a routine procedure. […] Culture was performed for 40 hours after introduction of the plasmid, and then TUS-007 was added to HeLa cells as follows. […] A BD FACSCantoTM II (BD Biosciences) was used for flow cytometry, and the expression levels of GFP and the DsRed protein in the cells were quantified. […] The GFP/DsRed ratio per cell was computed using an analysis software FlowJoTM (TOMY Digital Biology Co., Ltd.), and degradation (knockdown) of the wild-type K-Ras protein by TUS-007 was determined from a shift in a graph.

In assay [2] the target is T2, SOS1 protein (Homo sapiens, UniProt Q07889).
T2 construct: endogenous in cells; host or cells: HeLa
T2 sequence (Q07889 1-1333): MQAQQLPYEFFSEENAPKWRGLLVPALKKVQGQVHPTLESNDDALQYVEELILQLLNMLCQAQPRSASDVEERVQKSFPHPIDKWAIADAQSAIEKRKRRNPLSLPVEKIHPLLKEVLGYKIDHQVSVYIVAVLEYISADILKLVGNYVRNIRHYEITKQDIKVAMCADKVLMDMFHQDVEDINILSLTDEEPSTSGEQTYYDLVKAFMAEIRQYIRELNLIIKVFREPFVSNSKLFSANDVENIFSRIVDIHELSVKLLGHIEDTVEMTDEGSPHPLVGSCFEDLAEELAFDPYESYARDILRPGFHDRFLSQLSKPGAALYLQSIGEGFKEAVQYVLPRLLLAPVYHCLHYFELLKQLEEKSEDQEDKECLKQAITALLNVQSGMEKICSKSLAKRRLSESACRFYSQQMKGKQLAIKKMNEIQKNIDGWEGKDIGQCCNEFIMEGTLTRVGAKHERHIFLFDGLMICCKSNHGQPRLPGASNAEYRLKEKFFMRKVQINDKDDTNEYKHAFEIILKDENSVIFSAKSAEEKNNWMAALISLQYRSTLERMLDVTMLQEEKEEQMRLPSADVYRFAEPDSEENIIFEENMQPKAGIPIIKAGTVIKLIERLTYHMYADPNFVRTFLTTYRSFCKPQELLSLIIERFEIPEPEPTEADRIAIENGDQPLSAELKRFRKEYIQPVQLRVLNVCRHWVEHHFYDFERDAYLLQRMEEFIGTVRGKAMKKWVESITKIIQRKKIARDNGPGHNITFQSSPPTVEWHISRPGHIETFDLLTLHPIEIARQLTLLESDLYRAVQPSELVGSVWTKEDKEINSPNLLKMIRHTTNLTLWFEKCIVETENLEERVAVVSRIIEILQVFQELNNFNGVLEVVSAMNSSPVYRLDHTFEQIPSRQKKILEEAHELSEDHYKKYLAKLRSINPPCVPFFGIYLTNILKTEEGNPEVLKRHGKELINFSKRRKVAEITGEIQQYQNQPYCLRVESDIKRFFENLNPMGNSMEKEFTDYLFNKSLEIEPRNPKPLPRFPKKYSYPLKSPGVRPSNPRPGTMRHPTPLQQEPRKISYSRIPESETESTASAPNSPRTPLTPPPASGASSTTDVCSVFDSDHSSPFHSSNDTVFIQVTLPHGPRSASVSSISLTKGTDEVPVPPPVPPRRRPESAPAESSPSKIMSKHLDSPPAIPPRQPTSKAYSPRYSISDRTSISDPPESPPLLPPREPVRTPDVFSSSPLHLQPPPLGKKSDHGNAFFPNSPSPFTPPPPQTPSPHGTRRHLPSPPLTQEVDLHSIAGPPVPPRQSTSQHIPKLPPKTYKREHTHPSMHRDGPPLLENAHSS
Put plainly: Amount of SOS1 protein in HeLa cells, Western blot analysis. The class given is cell-based. The note with it: 48 hours after addition, vs control (DMSO), FIG. 5. On the technique in general: A western blot detects proteins with antibodies after separation by electrophoresis.

T1 sequence (P01116 1-188 isoform P01116-2): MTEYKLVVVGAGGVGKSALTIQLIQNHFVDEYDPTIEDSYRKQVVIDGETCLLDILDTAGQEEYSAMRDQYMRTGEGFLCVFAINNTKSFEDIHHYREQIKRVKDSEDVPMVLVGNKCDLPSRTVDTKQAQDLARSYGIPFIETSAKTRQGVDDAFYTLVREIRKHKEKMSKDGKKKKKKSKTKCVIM

Regarding `CCC(C)[C@H](NC(=O)CCCCCCNC(=O)[C@H](CC(C)C)NC(=O)CNC(=O)c1cc(Cl)ccc1Cl)C(=O)Nc1ccc2[nH]c(Cc3c[nH]c4ccccc34)nc2c1` (stereo in doubt) [TUS-007], the “degradation (knockdown) of the wild-type K-Ras protein (shift of GFP/DsRed ratio graph)” value in assay [1] (24 hours after addition, vs control (DMSO)) is given as “degradation of the wild-type K-Ras protein was induced”. Also, in assay [1] (MLN2238 co-added, compared with TUS-007 alone), the “degradation of the wild-type K-Ras protein when both TUS-007 and MLN2238 were added” value is “degradation of the wild-type K-Ras protein was inhibited”. In addition, the “amount of the SOS1 protein (Western blot)” value in assay [2] was “the amount of the SOS1 protein was not reduced”.
